# Results: patent US7141661B2, “Non-steroidal anti-inflammatory drug activated gene with anti-tumorigenic properties” (The United States of America as represented by the …, priority 2000, dated 2006)
# Experiments:
# Assay type in all cases: cell-based, human
# [1] = system: HCT-116 cells; assay: Apoptosis and cell cycle by PI staining / FACS in HCT-116 cells
# Protocol: To determine whether NAG-1 gene expression is associated with NSAID-induced apoptosis or altered cell cycle kinetics, flow cytometric analysis of the distribution of cells at various stages of the cell cycle was performed. Apoptosis and cell cycle kinetics of INDO-treated HCT-116 cells were measured at different time points. HCT-116 cells were treated with INDO, stained with PI, and analyzed by flow cytometry. Seven thousand five hundred cells were examined by flow cytometry by gating on an area versus width dot plot to exclude cell debris and cell aggregates. Apoptosis is represented by the fold increase in sub-G1 population over 0 hr treatment.
# The DNA content for NSAIDs, PPARγ ligand, and vehicle treated HCT-116 cells was determined by FACS. Cells were plated at a density of 4×10^5 cells/well in 2 ml of medium in 6 well plates, incubated for 16 h, and then treated with NSAIDs or TGZ in the presence of serum. After treatment, the cells were harvested, washed with PBS, fixed by the slow addition of cold 70% ethanol to a total of 1 ml, and stored overnight at 4° C. The fixed cells were pelleted, washed once with PBS, and stained in 1 ml of 20 μg/ml of propidium iodide (PI), 1 mg/ml RNase in PBS for 20 min. Seven thousand five hundred cells were examined by flow cytometry using Becton Dickinson FACSort equipped with CellQuest software, by gating on an area versus width dot plot to exclude cell debris and cell aggregates. Each cell cycle distribution was analyzed by the McCycle program using one cell cycle parameter. Apoptosis was measured based on the level of sub-diploid DNA contained in cells following treatment with NSAIDs or TGZ using CellQuest software.
# Northern analysis was performed using NAG-1 and β-actin as probes. The data represent relative expression of NAG-1 mRNA over the control (1.0). Each NSAID was tested at 3 different concentrations and maximally effective concentration used for apoptosis determination. Apoptosis ratio by PI staining was measured by FACS. […] The data represent relative apoptosis ratio over vehicle treatment by PI staining methods. TACS™ Annexin V-FITC kit was also used to confirm apoptosis.
# [2] = system: NAG-1; assay: Northern blot analysis of NAG-1 mRNA expression in HCT-116 cells; settings: HCT-116, 100 μM INDO, 48 hr, no serum
# [3] = system: NAG-1; assay: as above
# Protocol: Upon reaching 60–80% confluence in 10 cm plates, the cells were treated at indicated concentrations and times with either different NSAIDs or PPARγ ligands in the absence of serum. Total RNAs were isolated using TRIzol reagent (Life Technologies) according to the manufacturer's protocol. For Northern blot analysis, […] of total RNA was denatured at 55° C. for 15 min and separated in a 1.2% agarose gel containing 2.2 M formaldehyde, and transferred to Hybond-N membrane ([…]). After fixing the membrane by UV, blots were prehybridized in hybridization solution (Rapid-hyb buffer, […]) for 1 hr at 65° C. followed by hybridization with cDNA labeled with [α-^32P]dCTP by random primer extension (DECAprimeII kit, Ambion). The probes used were either full-length NAG-1 fragment or PTGFB clone (generously provided by Dr. Bento-Soar of the University of Iowa). After 4 hr incubation at 65° C., the blots were washed once with 2×SSC/0.1% SDS at RT and twice with 0.1×SSC/0.1% SDS at 65° C. Messenger RNA abundance Was estimated by intensities of the hybridization bands of autoradiographs using Scion Image (Scion). Equivalent loading of RNA samples was confirmed by hybridizing the same blot with a ^32P-labeled b-actin probe which recognizes RNA of approximately 2 kb.
# To determine whether other NSAIDs increased apoptosis and NAG-1 expression, tests were conducted to determine whether variants of NSAIDs induced NAG-1 gene expression and NSAID-induced apoptosis. Aspirin, ibuprofen, indomethacin, and sulindac sulfide were selected since they are known COX inhibitors. […] HCT-116 cells were treated with different NSAIDs (vehicle, 0.2% DMSO; aspirin, 10 mM; ibuprofen, 1 mM; sodium salicylate, 5 mM; sulindac sulfide, 50 μM; sulindac, 40 μM; acetaminophen, 100 μM) for 24 hr in the absence of serum. Northern analysis was performed using NAG-1 and β-actin as probes. Total RNAs were isolated from NSAID-treated HCT-116 cells after 24 hr treatment and Northern blot was performed using NAG-1 cDNA as a probe (data not shown). […] Each of the doses were as follows: aspirin (1, 5, 10 mM); ibuprofen (100, 500, 1000 μM); salicylate (1, 2.5, 5 mM); sulindac sulfide (1, 10, 50 μM); sulindac (10, 20, 40 μM); acetaminophen (10, 50, 100 μM). After 48 hr treatment with NSAIDs in the presence of serum, cells were harvested and assayed as described in FIG. 1C. Apoptosis detected by PI staining was measured by FACS, as known in the art (FIG. 2A; HCT-116 cells were treated with different NSAIDs (vehicle, 0.2% DMSO; Aspirin, 10 mM; Ibuprofen, 1 mM; Sodium Salicylate, 5 mM; Sulindac Sulfide, 50 μM; Sulindac, 40 μM; Acetaminophen, 100 μM) for 24 hr in the absence of serum. Northern analysis was performed using NAG-1 and β-actin as probes. The open bars represent the relative expression of NAG-1 mRNA over the control (vehicle). The hatched bars represent the relative apoptosis ratio over vehicle treatment by PI staining methods. N=3±S.D.).
# In the Table below, HCT-116 cells were treated with different NSAIDs (vehicle, 0.2% DMSO) for 24 hr in the absence of serum. Northern analysis was performed using NAG-1 and β-actin as probes. The data represent relative expression of NAG-1 mRNA over the control (1.0). Each NSAID was tested at 3 different concentrations and maximally effective concentration used for apoptosis determination. Apoptosis ratio by PI staining was measured by FACS. After 48 hr treatment with NSAIDs in the presence of serum, cells were harvested and assayed. The data represent relative apoptosis ratio over vehicle treatment by PI staining methods. TACS™ Annexin V-FITC kit was also used to confirm apoptosis.
structure (smiles),measurement,setting,value
COc1ccc2c(c1)c(CC(=O)O)c(C)n2C(=O)c1ccc(Cl)cc1 [Indomethacin],Increase in apoptosis (sub-G1 population over 0 hr),"[1]; HCT-116, 36 hr exposure",~3 fold
same,"Apoptosis (PI Staining), relative apoptosis ratio over vehicle","[1]; HCT-116, 48 hr in presence of serum, maximally effective concentration, FACS",2.9 ± 0.121
same,Increase in apoptosis (sub-G1 population over 0 hr),"[1]; HCT-116, 60 hr exposure",4.5 fold
same,Earliest time at which apoptosis was observed,"[1]; HCT-116, presence of serum, TGZ 5 μM",36 h
same,Time point at which G1 arrest was seen,"[1]; HCT-116, TGZ 5 μM",12 h
same,NAG-1 mRNA expression,[2],further increase
same,NAG-1 mRNA expression,"[3]; HCT-116, 100 μM INDO, 24 hr, no serum",significant increase
same,NAG-1 Induction (mRNA) Fold,"[3]; HCT-116, 24 hr in absence of serum, relative NAG-1 mRNA over vehicle control (1.0), tested over the concentration range listed",2.2 Fold
